# Assay results: patent US12478628B2, “Germ cell nuclear factor ligands and methods of use thereof” (Saint Louis University, priority 2020, dated 2025)
# Columns and labels:
# COUP-TF I LBD = target: T1, COUP-TF I LBD (Homo sapiens, UniProt P10589); test: DSF specificity assay, COUP-TF I; format: binding
# T1 construct: human COUP-TF I LBD (residues 184-410); hexahistidine tag with 3C protease site; made in house; host or cells: E. coli BL(21) DE3
# T1 sequence (P10589 184-410): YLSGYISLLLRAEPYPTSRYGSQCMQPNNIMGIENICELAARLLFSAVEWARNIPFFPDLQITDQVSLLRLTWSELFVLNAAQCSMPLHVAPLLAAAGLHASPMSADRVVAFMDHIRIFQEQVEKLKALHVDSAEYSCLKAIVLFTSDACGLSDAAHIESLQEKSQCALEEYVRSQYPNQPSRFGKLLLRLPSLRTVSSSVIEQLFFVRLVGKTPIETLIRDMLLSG
# Method: (§1) Protein Expression and Purification. Human GCNF (NR6A1) LBD (residues 248-480) and mutants F284A/F361A, human LRH-1 (NR5A2) LBD (residues 291-541), human RXRα LBD (residues 223-462), human COUP-TF I LBD (residues 184-410) and human SF-1 LBD (residues 219-461) were subcloned in pET45b(+) plasmid (Novagen) were expressed in E. coli BL(21) DE3 cells in terrific broth with 0.1 mg/mL ampicillin as 3C protease-cleavable hexahistidine-tagged fusion proteins. The bacterial culture was grown at 37° C. to an optical density of 0.8 to 1.0 at 600 nm. Protein expression was induced by adding 1 mM IPTG and was allowed to proceed for 14 h at 22° C. […]
# (§2) DSF Assay. […] A total of 450 compounds (Life Chemicals) previously selected from a nuclear-receptor-biased library targeting REV-ERB were analyzed. Thermal stability was assessed on a Quantstudio 6 instrument (Biosystems) by ramping the temperature from 25° C. to 95° C. at 0.05° C./s and protein melt shifts were subsequently quantified by Boltzmann-derived melting temperature (Tm) using the Protein Thermal Shift (ThermoFisher) software. […]
# [1] = system: BeWo human choriocarcinoma cells; test: qPCR of GCNF target gene expression in BeWo cells; format: cell-based; details: 20 μM, 24 h
# Method: BeWo cells were cultured in DMEM-F12 medium (Gibco) with 10% FBS (Gembio) and plated at 75,000 cells per well in 12-well plates (Corning). 24-hours after plating, cells were treated with either DMSO, ligand 34 or ligand 80 (20 μM) at 4 wells/group. RNA was isolated 24-hours after drug treatment and cDNA was synthesized for the QPCR assays using Bio-Rad iScript cDNA synthesis kit per manufacturer's protocol. Expression was analyzed by QPCR using a custom array plate (Bio-Rad PrimePCR) per manufacturer's protocol; n=4 was used for cell-based assays and plotted as mean±SEM.
# RXRα LBD = target: T2, RXRα LBD (Homo sapiens, UniProt P19793); test: DSF specificity assay, RXRα; format: binding
# T2 construct: human RXRα LBD (residues 223-462); hexahistidine tag with 3C protease site; made in house; host or cells: E. coli BL(21) DE3
# T2 sequence (P19793 223-462): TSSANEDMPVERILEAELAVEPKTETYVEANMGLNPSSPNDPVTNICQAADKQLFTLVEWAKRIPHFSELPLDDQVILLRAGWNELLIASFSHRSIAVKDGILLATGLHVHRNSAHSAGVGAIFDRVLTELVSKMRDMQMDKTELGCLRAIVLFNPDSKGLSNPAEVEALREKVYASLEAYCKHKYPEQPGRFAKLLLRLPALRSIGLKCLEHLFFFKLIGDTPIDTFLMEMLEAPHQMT
# Method: as §1, §2
# [2] = target: T3, chimeric Gal4-DBD human GCNF-LBD (Homo sapiens, UniProt Q15406); test: Luciferase cotransfection reporter assay in HEK293 cells; format: cell-based; details: read-out: IC50, suppression of GCNF transactivation
# T3 construct: expressed in transfected cells; host or cells: HEK293
# T3 sequence (Q15406 249-480 limits assumed): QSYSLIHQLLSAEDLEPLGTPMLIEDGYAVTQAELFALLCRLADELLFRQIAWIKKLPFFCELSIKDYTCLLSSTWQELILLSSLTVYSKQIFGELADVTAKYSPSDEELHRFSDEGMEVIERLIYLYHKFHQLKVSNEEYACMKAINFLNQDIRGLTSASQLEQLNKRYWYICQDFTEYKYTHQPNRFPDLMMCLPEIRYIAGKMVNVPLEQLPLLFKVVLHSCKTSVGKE
# Method: Cell Culture, Cotransfection Assays, and QPCR Analysis. Cotransfection assays were performed in HEK293 cells as previously described (Griffett et al., 2013; Wu et al., 2003; Savkur et al., 2003). Briefly, for dose-response cotransfection assays, a chimeric Gal4-DBD human GCNF-LBD in the pBIND vector was cotransfected with pGL4.35[luc2P/9XGAL4UAS/Hygro] vector (Promega). All cotransfections were normalized to renilla (pGL4.73; Dual-Glo luciferase reagent; Promega) and subsequently DMSO for analysis.
change of Tm of COUP-TF I LBD (COUP-TF I LBD),change of Tm of RXRα LBD (RXRα LBD),IC50 [2] [nM],Structure (SMILES),GCNF gene expression [1],NR5A1 (SF-1) expression [1],NR5A2 (LRH-1) expression [1],Nanog expression [1],Oct4 expression [1],carnitine palmitoyltransferase 1a (CPT1a) expression [1],diglyceride acyltransferase-1 (DGAT1) expression [1],diglyceride acyltransferase-2 (DGAT2) expression [1],fatty acid synthase (FASN) expression [1],phosphoenolpyruvate carboxykinase (PEPCK) expression [1]
did not significantly change,did not significantly change,1100,"Cc1ccc(-n2ncc3c(N4CCOCC4)nc(NCc4ccco4)nc32)cc1 [Ligand 34, N-[(furan-2-yl)methyl]-1-(4-methylphenyl)-4-(morpholin-4-yl)-1H-pyrazolo[3,4-d]pyrimidin-6-amine]",not affected,significantly promoted the expression,significantly promoted the expression,significantly promoted the expression,significantly promoted the expression,significantly increased,significantly promoted the expression,no significant effect,no significant effect,upregulated
did not significantly change,did not significantly change,317,"O=C(Cn1cc(S(=O)(=O)c2ccccc2)c2ccccc21)N1CCc2ccccc21 [Ligand 80, 2-[3-(benzenesulfonyl)-1H-indol-1-yl]-1-(2,3-dihydro-1H-indol-1-yl)ethan-1-one]",not affected,"but not 80, significantly promoted the expression",–,–,"but not 80, significantly promoted the expression",no effect,"but not 80, significantly promoted the expression",no significant effect,no significant effect,upregulated
